The results in this text go back to patent US11267826B2, “Penicillin-binding protein inhibitors” (priority 2017, dated 2022).

The structures appear in SMILES notation.

For one assay, the system named is S. aureus ATCC 29213. The assay can be described thus: Broth microdilution MIC assay, S. aureus. The settings on record: Staphylococcus aureus, ATCC29213; broth microdilution, 16-20 hours at 37° C.; read-out: S. aureus 29213 MIC. Format: cell-based. On the procedure: (§1) To determine the ability of test compounds to potentiate the inhibition of the growth of bacterial strains, classic cell based broth microdilution MIC assays were employed. MIC assays are performed according to CLSI methods except where otherwise noted (CLSI, 2011 and CLSI, 2009). The reference strain S. aureus ATCC 29213 and the hyper-permeable E. coli 901C were used to determine the ability of the PBP compounds to inhibit bacterial growth. Briefly, cryo-preserved bacterial cultures of clinical strains are streaked for isolation on appropriate agar medium, in this case Mueller Hinton II agar. Following incubation to allow formation of colonies these plates are sealed with parafilm and stored refrigerated for up to two weeks. For preparation of assay inocula and to ensure low variability, at least 5 colonies are picked from the agar plates with an inoculating loop and aseptically transferred to a culture tube containing 3 mL of Mueller-Hinton Broth (supplemented with divalent cations to required levels based on Manufacturers' certification). The broth culture is grown for 3-5 hours at 37° C. with shaking at 200 rpm. Meanwhile, 2-fold serial dilutions of test compounds are conducted in a 96 well plate with a final volume of 75 μL per well at 2-fold the final desired concentration. After the dilution plates are set up the growing cultures are then diluted in a cuvette containing MH II broth and the optical density is measured at 600 nm. Inocula are diluted such that 75 μL of this culture in Mueller-Hinton Broth results in a starting bacterial concentration of 5×10^5 CFU/mL when added to the dilution plates. The plates are incubated 16-20 hours at 37° C. The MIC is read visually as the lowest concentration well with no bacterial growth.
A general note: Dilution methods test growth across graded concentrations, often in twofold steps.

The subject of assay [1] is hyper-permeable E. coli 901C. The assay can be described thus: Broth microdilution MIC assay, hyper-permeable E. coli. Format: cell-based. The settings on record: Escherichia coli, read-out: E. coli 901C MIC. As for the experimental part:
as §1

One may read the MIC as the lowest concentration found to suppress growth.

As to `Nc1nc(C(CC(=O)O)C(=O)N[C@H]2Cc3cccc(C(=O)O)c3OB2O)cs1` (mixture of isomers) [Example 99, (3R)-3-(2-(2-aminothiazol-4-yl)-3-carboxypropanamido)-2-hydroxy-3,4-dihydro-2H-benzo[e][1,2]oxaborinine-8-carboxylic Acid], the figures for the MIC (with S. aureus ATCC 29213; in assay [1]) were greater than 128 µg/mL and 64 to 128 µg/mL, respectively.
In the case of `Nc1nc(C(=NO)C(=O)NC2Cc3cccc(C(=O)O)c3OB2O)ns1` (stereo in doubt) [Example 20, (S,Z)-3-(2-(5-amino-1,2,4-thiadiazol-3-yl)-2-(hydroxyimino)acetamido)-2-hydroxy-3,4-dihydro-2H-benzo[e][1,2]oxaborinine-8-carboxylic Acid], the MIC (with S. aureus ATCC 29213; in assay [1]) was greater than 128 µg/mL throughout.
Consider `Nc1ncc(C(=NO)C(=O)N[C@H]2Cc3cccc(C(=O)O)c3OB2O)s1` (stereo in doubt) [Example 95, (R,Z)-3-(2-(2-aminothiazol-5-yl)-2-(hydroxyimino)acetamido)-2-hydroxy-3,4-dihydro-2H-benzo[e][1,2]oxaborinine-8-carboxylic Acid], for which the MIC was less than 64 µg/mL with S. aureus ATCC 29213 and greater than 128 µg/mL in assay [1].
As to `Nc1ncc(C(=NO)C(=O)N[C@H]2Cc3cccc(C(=O)O)c3OB2O)s1` (stereo in doubt) [Example 96, (R,E)-3-(2-(2-aminothiazol-5-yl)-2-(hydroxyimino)acetamido)-2-hydroxy-3,4-dihydro-2H-benzo[e][1,2]oxaborinine-8-carboxylic Acid], the results for the MIC (in the assay on S. aureus ATCC 29213; in assay [1]) were 64 to 128 µg/mL and greater than 128 µg/mL, respectively.
For the molecule `CO/N=C(\C(=O)N[C@H]1Cc2cccc(C(=O)O)c2OB1O)c1nsc(N)n1` [Example 2, (R,Z)-3-(2-(5-amino-1,2,4-thiadiazol-3-yl)-2-(methoxyimino)acetamido)-2-hydroxy-3,4-dihydro-2H-benzo[e][1,2]oxaborinine-8-carboxylic Acid], the results for the MIC (in the assay on S. aureus ATCC 29213; in assay [1]) were greater than 128 µg/mL and less than 64 µg/mL, respectively.
The matching figures for `CO/N=C(/C(=O)N[C@H]1Cc2cccc(C(=O)O)c2OB1O)c1cccnc1` [Example 3, (R,E)-2-hydroxy-3-(2-(methoxyimino)-2-(pyridin-3-yl)acetamido)-3,4-dihydro-2H-benzo[e][1,2]oxaborinine-8-carboxylic Acid]: greater than 128 µg/mL and greater than 128 µg/mL.
In the case of `CO/N=C(\C(=O)N[C@H]1Cc2cccc(C(=O)O)c2OB1O)c1cccnc1` [Example 4, (R,Z)-2-hydroxy-3-(2-(methoxyimino)-2-(pyridin-3-yl)acetamido)-3,4-dihydro-2H-benzo[e][1,2]oxaborinine-8-carboxylic Acid], the MIC in the assay on S. aureus ATCC 29213 was 64 to 128 µg/mL; in assay [1], greater than 128 µg/mL.
Turning to `CO/N=C(\C(=O)N[C@H]1Cc2cccc(C(=O)O)c2OB1O)c1ccc2c(c1)CNC2` [Example 5, (R,Z)-2-hydroxy-3-(2-(isoindolin-5-yl)-2-(methoxyimino)acetamido)-3,4-dihydro-2H-benzo[e][1,2]oxaborinine-8-carboxylic Acid], the MIC (in the assay on S. aureus ATCC 29213; in assay [1]) was greater than 128 µg/mL throughout.
Consider `O=C(N[C@H]1Cc2cccc(C(=O)O)c2OB1O)/C(=N\O)c1ccc2c(c1)CNC2` [Example 8, (R,Z)-2-hydroxy-3-(2-(hydroxyimino)-2-(isoindolin-5-yl)acetamido)-3,4-dihydro-2H-benzo[e][1,2]oxaborinine-8-carboxylic Acid], for which the MIC (in the assay with S. aureus ATCC 29213; in assay [1]) was less than 64 µg/mL in each case.
Take `Nc1nc(/C(=N/O)C(=O)N[C@@H]2Cc3cccc(C(=O)O)c3OB2O)cs1` [Example 9, (S,Z)-3-(2-(2-aminothiazol-4-yl)-2-(hydroxyimino)acetamido)-2-hydroxy3,4-dihydro-2H-benzo[e][1,2]oxaborinine-8-carboxylic Acid]: the MIC (with S. aureus ATCC 29213; in assay [1]) was greater than 128 µg/mL each time.
For `NCCNc1nc(/C(=N/O)C(=O)N[C@H]2Cc3cccc(C(=O)O)c3OB2O)cs1` [Example 10, (R,Z)-3-(2-(2-((2-aminoethyl)amino)thiazol-4-yl)-2-(hydroxyimino)acetamido)-2-hydroxy-3,4-dihydro-2H-benzo[e][1,2]oxaborinine-8-carboxylic Acid], the results for the MIC (with S. aureus ATCC 29213; in assay [1]) were 64 to 128 µg/mL and greater than 128 µg/mL, respectively.
Consider `N=C(N)Nc1nc(/C(=N/O)C(=O)N[C@H]2Cc3cccc(C(=O)O)c3OB2O)cs1` [Example 11, (R,Z)-3-(2-(2-guanidinothiazol-4-yl)-2-(hydroxyimino)acetamido)-2-hydroxy-3,4-dihydro-2H-benzo[e][1,2]oxaborinine-8-carboxylic Acid], for which the minimal inhibitory concentration (MIC) in the assay on S. aureus ATCC 29213 is less than 64 µg/mL; in assay [1], greater than 128 µg/mL.
As for `Nc1nc(/C(=N/OCCO)C(=O)N[C@H]2Cc3cccc(C(=O)O)c3OB2O)cs1` [Example 13, (R,Z)-3-(2-(2-aminothiazol-4-yl)-2-((2-hydroxyethoxy)imino)acetamido)-2-hydroxy-3,4-dihydro-2H-benzo[e][1,2]oxaborinine-8-carboxylic Acid], the MIC is 64 to 128 µg/mL in the assay with S. aureus ATCC 29213 and greater than 128 µg/mL in assay [1].
In the case of `Nc1cc(/C(=N/O)C(=O)N[C@H]2Cc3cccc(C(=O)O)c3OB2O)ccn1` [Example 14, (R,Z)-3-(2-(2-aminopyridin-4-yl)-2-(hydroxyimino)acetamido)-2-hydroxy-3,4-dihydro-2H-benzo[e][1,2]oxaborinine-8-carboxylic Acid], the MIC with S. aureus ATCC 29213 was less than 64 µg/mL; in assay [1], greater than 128 µg/mL.
Regarding `Nc1cc(/C(=N\O)C(=O)N[C@H]2Cc3cccc(C(=O)O)c3OB2O)ccn1` [Example 15, (R,E)-3-(2-(2-aminopyridin-4-yl)-2-(hydroxyimino)acetamido)-2-hydroxy-3,4-dihydro-2H-benzo[e][1,2]oxaborinine-8-carboxylic Acid], the minimum inhibitory concentration (MIC) in the assay on S. aureus ATCC 29213 is 64 to 128 µg/mL; in assay [1], greater than 128 µg/mL.
Turning to `Nc1cccc(/C(=N/O)C(=O)N[C@H]2Cc3cccc(C(=O)O)c3OB2O)n1` [Example 16, (R,Z)-3-(2-(6-aminopyridin-2-yl)-2-(hydroxyimino)acetamido)-2-hydroxy-3,4-dihydro-2H-benzo[e][1,2]oxaborinine-8-carboxylic Acid], the MIC was less than 64 µg/mL with S. aureus ATCC 29213 and 64 to 128 µg/mL in assay [1].
`C[N+]1(Cc2ccc3c(c2C(=O)[O-])OB(O)[C@@H](NC(=O)/C(=N\O)c2csc(N)n2)C3)CCCC1` [Example 26, (R,Z)-3-(2-(2-aminothiazol-4-yl)-2-(hydroxyimino)acetamido)-2-hydroxy-7-((1-methylpyrrolidin-1-ium-1-yl)methyl)-3,4-dihydro-2H-benzo[e][1,2]oxaborinine-8-carboxylate]: the MIC with S. aureus ATCC 29213 is less than 64 µg/mL.
The same measure, in the same setting: the result for `Nc1nc(/C(=N/O)C(=O)N[C@H]2Cc3ccc(CN4CCC(CO)CC4)c(C(=O)O)c3OB2O)cs1` [Example 29, (R,Z)-3-(2-(2-aminothiazol-4-yl)-2-(hydroxyimino)acetamido)-2-hydroxy-7-((4-(hydroxymethyl)piperidin-1-yl)methyl)-3,4-dihydro-2H-benzo[e][1,2]oxaborinine-8-carboxylic Acid] reads greater than 128 µg/mL; that for `C[N+]1(Cc2ccc3c(c2C(=O)[O-])OB(O)[C@@H](NC(=O)/C(=N\O)c2csc(N)n2)C3)CCC(CO)CC1` (stereo partly drawn) [Example 30, (R,Z)-3-(2-(2-aminothiazol-4-yl)-2-(hydroxyimino)acetamido)-2-hydroxy-7-((4-(hydroxymethyl)-1-methylpiperidin-1-ium-1-yl)methyl)-3,4-dihydro-2H-benzo[e][1,2]oxaborinine-8-carboxylate], less than 64 µg/mL; that for `CN(CC(=O)O)Cc1ccc2c(c1C(=O)O)OB(O)[C@@H](NC(=O)/C(=N\O)c1csc(N)n1)C2` [Example 31, (R,Z)-3-(2-(2-aminothiazol-4-yl)-2-(hydroxyimino)acetamido)-7-(((carboxymethyl)(methyl)amino)methyl)-2-hydroxy-3,4-dihydro-2H-benzo[e][1,2]oxaborinine-8-carboxylic Acid], greater than 128 µg/mL.
As for `C[N+]1(Cc2cc3c(c(C(=O)[O-])c2)OB(O)[C@@H](NC(=O)/C(=N\O)c2csc(N)n2)C3)CCCC1` [Example 34, (R,Z)-3-(2-(2-aminothiazol-4-yl)-2-(hydroxyimino)acetamido)-2-hydroxy-6-((1-methylpyrrolidin-1-ium-1-yl)methyl)-3,4-dihydro-2H-benzo[e][1,2]oxaborinine-8-carboxylate], the MIC in the assay on S. aureus ATCC 29213 is less than 64 µg/mL.
On to `COC(=O)CCc1cc2c(c(C(=O)O)c1)OB(O)[C@@H](NC(=O)/C(=N\O)c1csc(N)n1)C2` [Example 36, (R,Z)-3-(2-(2-aminothiazol-4-yl)-2-(hydroxyimino)acetamido)-2-hydroxy-6-(3-methoxy-3-oxopropyl)-3,4-dihydro-2H-benzo[e][1,2]oxaborinine-8-carboxylic Acid], for which the minimal inhibitory concentration (MIC) in the assay with S. aureus ATCC 29213 is less than 64 µg/mL.
In the case of `Nc1nc(/C(=N/O)C(=O)N[C@H]2Cc3cc(C(=O)O)cc(C(=O)O)c3OB2O)cs1` [Example 38, (R,Z)-3-(2-(2-aminothiazol-4-yl)-2-(hydroxyimino)acetamido)-2-hydroxy-3,4-dihydro-2H-benzo[e][1,2]oxaborinine-6,8-dicarboxylic Acid], in the assay on S. aureus ATCC 29213, the MIC is greater than 128 µg/mL.
